Where two headings read alike, the source gives them in different places. *1 amine or outer side, *2 acyl side, *3 side chain or, on linkers, in order; H or OH if unused. Where a SMILES comes first, the peptide text is derived from it. Bridges are numbered along the chain shown (N, C = ends). Roman numbers before positions name the chains, in order. [ ]: non-standard residue; d: D form. Actinocin(9to1) = Cc1c2oc3c(C)ccc(C(=O)[*:1])c3nc-2c(C(=O)[*:2])c(N)c1=O; NMeV = CN[C@H](C(=O)O)C(C)C; Sar = CNCC(=O)O
Columns and labels:
[1] = tested on: Chinese hamster ovary (CHO) tissue culture cells (AuxB1 and C5S32); experiment: Cytotoxicity of Actinomycin D alone in Chinese hamster ovary cells (AuxB1 and C5S32); format: cell-based
[2] = in vitro; format: cell-based, Chinese hamster; details: hamster, auxb1 cho cells
[3] = tested on: AuxB1 Chinese hamster ovary cells (wildtype); experiment: in vitro; format: cell-based; details: auxb1 cho cells, 96 h
[4] = In vitro cytotoxicity of potentiating agents in Chinese hamster ovary cells, multidrug resistant C5S32 line, MTT; format: cell-based; details: hamster, c5s32 cho cells, C5S32 drug resistant, no Act D, untreated = 1.00, read-out: Normalized absorbance (cell survival), potentiating agent alone, fraction of untreated culture
[5] = tested on: C5S32 Chinese hamster ovary cells (drug resistant); experiment: as above; format: cell-based; details: 96 h, Act D alone = 1.00
[6] = tested on: KB 3-1 human epidermoid carcinoma cells (wildtype); details: kb 3-1 cells, 96 h
Experimental: (§1) The procedure for assaying the cytotoxicity of potentiating agents with human KB epidermoid carcinoma cells is essentially the same as the assay procedure described above for use with Chinese hamster ovary cells. […] After 48 hours of incubation at 37° C., the media is changed and cells are treated with actinomycin D at 0.1 nM (3-1) or 20 nM (V-i). The test potentiating agent is introduced to one-half the untreated cultures and onehalf the Act D treated cultures at 1 and 10 μM. After 96 hours of additional incubation at 37° C, 0.5 mg/ml MTT dye is added, the cells are incubated for three hours, after which the cells are dissolved in DMSO, and the absorbance is then read at 570 nm.

[7] = in vitro; details: human, kb 3-1 cells
Experimental: as §1

[8] = In vitro cytotoxicity of potentiating agents in human KB epidermoid carcinoma cells, drug resistant KB V-1, MTT; details: human, kb v-1 cells
Experimental: as §1

[9] = tested on: KB V-1 human epidermoid carcinoma cells (drug resistant); experiment: as above; details: KB V-1 drug resistant, 96 h, Act D alone = 1.00
Experimental: as §1

[10] = tested on: resistant sublines of murine leukemia cells; details: Tsuruo et al., Cancer Res.; cited from earlier work

Cc1c2oc3c(C)ccc(C(=O)N[C@@H]4C(=O)N[C@H](C(C)C)C(=O)N5CCC[C@H]5C(=O)N(C)CC(=O)N(C)[C@@H](C(C)C)C(=O)O[C@@H]4C)c3nc-2c(C(=O)N[C@@H]2C(=O)N[C@H](C(C)C)C(=O)N3CCC[C@H]3C(=O)N(C)CC(=O)N(C)[C@@H](C(C)C)C(=O)O[C@@H]2C)c(N)c1=O [Actinomycin D] (I: T[dV]P[Sar][NMeV] / II: T[dV]P[Sar][NMeV]; ester I:1-I:C, II:1-II:C; linker I:N-II:N via Actinocin(9to1))
reduction in cell number below the value of completely untreated cultures ([1]; Act D alone (0.01 μM AuxB1, 0.5 μM C5S32), in most experiments): 10-20% | resistance of C5S32 cells to Actinomycin D compared to the parental AuxB1 cell line ([1]; C5S32 vs AuxB1): about 200 fold

CCOC(=O)/C=C/c1cccc(/C(=C/CN2CCCC2)c2ccc(C)cc2)n1 [Compound (B), Ethyl (E)-3-{6-[3-pyrrolidino-l-(4-tolyl)prop-lE-enyl]-2-pyridyl}acrylate]
viability at 96 h, 1 µM [2]: 92% | viability at 96 h, 10 µM [2]: 93% | Normalized absorbance (cell survival), potentiating agent + Act D, fraction of Act D alone ([3]; 1 µM): 0.63 | Normalized absorbance (cell survival), potentiating agent + Act D, fraction of Act D alone ([3]; 10 µM): 0.29 | viability at 96 h, 1 µM ([4]; potentiating agent 1 μM): 77% | viability at 96 h, 10 µM ([4]; potentiating agent 10 μM): 52% | Normalized absorbance (cell survival), potentiating agent + Act D, fraction of Act D alone ([5]; potentiating agent 1 μM + Act D 0.5 μM): 0.63 | Normalized absorbance (cell survival), potentiating agent + Act D, fraction of Act D alone ([5]; potentiating agent 10 μM + Act D 0.5 μM): 0.14 | Normalized absorbance (cell survival), potentiating agent + Act D, fraction of Act D alone ([6]; 1 µM): 0.55 | Normalized absorbance (cell survival), potentiating agent + Act D, fraction of Act D alone ([6]; 10 µM): 0.45 | viability at 96 h, 1 µM [7]: 58% | viability at 96 h, 10 µM [7]: 37% | viability at 96 h, 1 µM [8]: 36% | viability at 96 h, 10 µM [8]: 14% | Normalized absorbance (cell survival), potentiating agent + Act D, fraction of Act D alone ([9]; potentiating agent 1 μM + actinomycin D 20 nM): 0.48 | Normalized absorbance (cell survival), potentiating agent + Act D, fraction of Act D alone ([9]; potentiating agent 10 μM + actinomycin D 20 nM): 0.04

COc1ccc(CCN(C)CCCC(C#N)(c2ccc(OC)c(OC)c2)C(C)C)cc1OC (stereo not shown) [Verapamil]
enhancement of the activity of antitumor agents against resistant sublines of murine leukemia cells [10]: enhance the activity of antitumor agents

CCN(CC)CCn1c(=O)c(Cc2ccc(OC)cc2)nc2ccccc21 [caroverine]
enhancement of the activity of antitumor agents against resistant sublines of murine leukemia cells [10]: enhance the activity of antitumor agents

CN(C)CCCN1c2ccccc2CCc2ccc(Cl)cc21 [clomipramine]
enhancement of the activity of antitumor agents against resistant sublines of murine leukemia cells [10]: enhance the activity of antitumor agents

COc1ccc([C@@H]2Sc3ccccc3N(CCN(C)C)C(=O)[C@@H]2OC(C)=O)cc1 [diltiazem]
enhancement of the activity of antitumor agents against resistant sublines of murine leukemia cells [10]: enhance the activity of antitumor agents

COC(=O)C1=C(C)NC(C)=C(C(=O)OCCN(C)Cc2ccccc2)C1c1cccc([N+](=O)[O-])c1 (stereo not shown) [nicardipine]
enhancement of the activity of antitumor agents against resistant sublines of murine leukemia cells [10]: enhance the activity of antitumor agents

C=C[C@H]1C[N@@]2CC[C@H]1C[C@@H]2[C@@H](O)c1ccnc2ccc(OC)cc12 [quinidine]
enhancement of the activity of antitumor agents against resistant sublines of murine leukemia cells [10]: enhance the activity of antitumor agents

CN1CCN(CCCN2c3ccccc3Sc3ccc(C(F)(F)F)cc32)CC1 [trifluoperazine]
enhancement of the activity of antitumor agents against resistant sublines of murine leukemia cells [10]: enhance the activity of antitumor agents

Source: patent US5346897A, “Agents for potentiating the effects of antitumor agents and combating multiple drug resistance” (Burroughs Wellcome Co., priority 1992, dated 1994)
